Laboratory results taken from patent US11780901B2, “Analogues of parathyroid hormone (1-34) that function as agonists of the parathyroid hormone receptor-1 and display modified activity profiles” (Wisconsin Alumni Research Foundation, priority 2013, dated 2023).
Read-outs that look alike come from different tables or passages of the source. Starred links: 1 amine or outer side, 2 acyl side, 3 side chain; linkers in the order of their positions; H or OH if unused. Non-standard residues stand in square brackets, D forms with d. Residues, ends and D or L forms follow the SMILES beside them. X1 = CCCC[C@H](CN[*:1])C(=O)[*:2]

How the values were obtained:
Assay type in all cases: cell-based
PTHR1 and PTHR2 = test: Tolerance pattern of β residues for PTHR1 and PTHR2 activation; parameters: key: “*” denotes potent PTHR1-selective agonism; “#” denotes potent PTHR2-selective agonism; “*#” denotes potent agonism of both PTHR1 and PTHR2; details: PTHR1 vs PTHR2 agonism
Text: Enhanced selectivity via double α→β replacement.

PTHR1 = molecular target: T1, PTHR1 (Homo sapiens, UniProt Q03431); test: PTHR1 activation, cAMP production (GloSensor) in HEK293 cells; parameters: expressed in transfected cells; details: for PTHR1 Activation: Derivative EC50/PTH EC50: normalized to EC50 of PTH(1-34)-NH2 ([…]), cAMP production
T1 sequence (Q03431 27-593): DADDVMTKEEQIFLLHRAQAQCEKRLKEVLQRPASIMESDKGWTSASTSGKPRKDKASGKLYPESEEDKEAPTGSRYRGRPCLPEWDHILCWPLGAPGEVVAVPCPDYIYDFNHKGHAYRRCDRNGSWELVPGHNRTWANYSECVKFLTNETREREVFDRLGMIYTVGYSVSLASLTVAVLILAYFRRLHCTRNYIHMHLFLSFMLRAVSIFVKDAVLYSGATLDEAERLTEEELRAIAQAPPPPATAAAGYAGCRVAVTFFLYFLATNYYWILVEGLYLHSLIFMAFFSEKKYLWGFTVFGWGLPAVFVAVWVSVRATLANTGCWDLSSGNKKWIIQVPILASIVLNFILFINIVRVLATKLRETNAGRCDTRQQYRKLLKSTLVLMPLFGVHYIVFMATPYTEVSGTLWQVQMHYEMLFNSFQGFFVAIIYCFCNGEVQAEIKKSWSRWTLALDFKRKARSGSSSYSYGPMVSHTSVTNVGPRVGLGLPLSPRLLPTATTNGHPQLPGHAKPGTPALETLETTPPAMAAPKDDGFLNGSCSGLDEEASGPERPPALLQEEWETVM

PTHR2 = PTHR2 (Homo sapiens, UniProt P49190); test: PTHR2 activation, cAMP production (GloSensor) in HEK293 cells; parameters: expressed in transfected cells; key to PTHR2 Activation: Derivative EC50/PTH EC50: *** denotes poor tolerance of β amino acid for PTHR2 activation; details: for EC50: HEK-293 cells, GloSensor cAMP, read-out: EC50 (nM) of PTHR2 Activation; for PTHR2 Activation: Derivative EC50/PTH EC50: normalized to EC50 of PTH(1-34)-NH2 ([…] printed), cAMP production
Text: The assays employ HEK-293 cells that have been engineered to express the appropriate receptor. GloSensor-based detection of cAMP provides a read-out of receptor activation. […] (Carter, P. H. et al. Actions of the Small Molecule Ligands SW106 and AH-3960 on the Type-1 Parathyroid Hormone Receptor. Molecular Endocrinology 29, 307-321 (2015).)
FIGS. 10A and 10B depict dose-response curves of PTHR1 activation (FIG. 10A) and PTHR2 activation (FIG. 10B) in HEK293 cells stably expressing PTHR1 or PTHR2. For PTHR1 activation and all the binding data, data represent mean±s.e.m from three independent measurements; For PTHR2 activation, data represent mean±s.e.m from four independent measurements. Curves were fit to the data using a four-parameter sigmoidal dose-response equation.

[1] = HEK-293 cells, GloSensor cAMP, read-out: EC50 (nM) of PTHR1 Activation

Chain of PTHR2 (P49190 25-550): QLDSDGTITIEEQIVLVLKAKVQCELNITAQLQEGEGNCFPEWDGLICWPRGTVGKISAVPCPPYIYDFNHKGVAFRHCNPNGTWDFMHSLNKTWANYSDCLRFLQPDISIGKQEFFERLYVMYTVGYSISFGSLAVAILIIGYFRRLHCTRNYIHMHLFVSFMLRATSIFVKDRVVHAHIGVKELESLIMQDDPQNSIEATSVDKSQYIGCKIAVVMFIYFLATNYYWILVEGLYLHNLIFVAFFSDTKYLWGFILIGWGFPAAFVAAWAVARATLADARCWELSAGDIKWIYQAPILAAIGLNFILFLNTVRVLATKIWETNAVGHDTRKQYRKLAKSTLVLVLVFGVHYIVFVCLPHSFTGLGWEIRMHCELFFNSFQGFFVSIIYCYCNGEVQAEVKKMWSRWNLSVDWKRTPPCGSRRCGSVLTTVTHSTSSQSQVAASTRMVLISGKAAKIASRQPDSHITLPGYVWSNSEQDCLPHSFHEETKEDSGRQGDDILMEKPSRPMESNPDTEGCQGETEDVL

Structure (SMILES)	Tolerance Pattern of β AA (PTHR1 and PTHR2)	EC50 (PTHR1; [1])	PTHR1 Activation: Derivative EC50/PTH EC50 (PTHR1)	EC50 (PTHR2)	PTHR2 Activation: Derivative EC50/PTH EC50 (PTHR2)	EC50 (PTHR1; Table 8, hPTHR1, read-out: PTHR1 EC50)
CC[C@H](C)[C@H](NC(=O)[C@H](CCC(=O)O)NC(=O)[C@H](CO)NC(=O)[C@@H](NC(=O)[C@@H](N)CO)C(C)C)C(=O)N[C@@H](CCC(N)=O)C(=O)NC[C@@H](CC(C)C)C(=O)N[C@@H](CCSC)C(=O)N[C@@H](Cc1c[nH]cn1)C(=O)N[C@@H](CC(N)=O)C(=O)N[C@@H](CC(C)C)C(=O)NCC(=O)N[C@@H](CCCCN)C(=O)N[C@@H](Cc1c[nH]cn1)C(=O)N[C@@H](CC(C)C)C(=O)N[C@@H](CC(N)=O)C(=O)N[C@@H](CO)C(=O)N[C@@H](CCSC)C(=O)N[C@@H](CCC(=O)O)C(=O)N[C@@H](CCCNC(=N)N)C(=O)N[C@H](C(=O)N[C@@H](CCC(=O)O)C(=O)N[C@@H](Cc1c[nH]c2ccccc12)C(=O)N[C@@H](CC(C)C)C(=O)N[C@@H](CCCNC(=N)N)C(=O)N[C@@H](CCCCN)C(=O)N[C@@H](CCCCN)C(=O)N[C@@H](CC(C)C)C(=O)N[C@@H](CCC(N)=O)C(=O)N[C@@H](CC(=O)O)C(=O)N[C@H](C(=O)N[C@@H](Cc1c[nH]cn1)C(=O)N[C@@H](CC(N)=O)C(=O)N[C@@H](Cc1ccccc1)C(N)=O)C(C)C)C(C)C [SEQ. ID. NO: 28]	*	0.36 ± 0.11 nM	0.95	41.4 ± 5.18 nM	47.64	
CCCC[C@H](CNC(=O)[C@H](CC(C)C)NC(=O)[C@H](CCC(N)=O)NC(=O)[C@@H](NC(=O)[C@H](CCC(=O)O)NC(=O)[C@H](CO)NC(=O)[C@@H](NC(=O)[C@@H](N)CO)C(C)C)[C@@H](C)CC)C(=O)N[C@@H](Cc1c[nH]cn1)C(=O)N[C@@H](CC(N)=O)C(=O)N[C@@H](CC(C)C)C(=O)NCC(=O)N[C@@H](CCCCN)C(=O)N[C@@H](Cc1c[nH]cn1)C(=O)N[C@@H](CC(C)C)C(=O)N[C@@H](CC(N)=O)C(=O)N[C@@H](CO)C(=O)N[C@@H](CCSC)C(=O)N[C@@H](CCC(=O)O)C(=O)N[C@@H](CCCNC(=N)N)C(=O)N[C@H](C(=O)N[C@@H](CCC(=O)O)C(=O)N[C@@H](Cc1c[nH]c2ccccc12)C(=O)N[C@@H](CC(C)C)C(=O)N[C@@H](CCCNC(=N)N)C(=O)N[C@@H](CCCCN)C(=O)N[C@@H](CCCCN)C(=O)N[C@@H](CC(C)C)C(=O)N[C@@H](CCC(N)=O)C(=O)N[C@@H](CC(=O)O)C(=O)N[C@H](C(=O)N[C@@H](Cc1c[nH]cn1)C(=O)N[C@@H](CC(N)=O)C(=O)N[C@@H](Cc1ccccc1)C(N)=O)C(C)C)C(C)C [SEQ. ID. NO: 29] (H-SVSEIQL[X1]HNLGKHLNSMERVEWLRKKLQDVHNF-NH2; N-terminus assumed)	*	0.4 ± 0.07 nM	1.05	> 1000 nM	***	
CC[C@H](C)[C@H](NC(=O)[C@H](CCC(=O)O)NC(=O)[C@H](CO)NC(=O)[C@@H](NC(=O)[C@@H](N)CO)C(C)C)C(=O)N[C@@H](CCC(N)=O)C(=O)NC[C@H](CC(C)C)C(=O)N[C@@H](CCSC)C(=O)N[C@@H](Cc1c[nH]cn1)C(=O)N[C@@H](CC(N)=O)C(=O)N[C@@H](CC(C)C)C(=O)NCC(=O)N[C@@H](CCCCN)C(=O)N[C@@H](Cc1c[nH]cn1)C(=O)N[C@@H](CC(C)C)C(=O)N[C@@H](CC(N)=O)C(=O)N[C@@H](CO)C(=O)N[C@@H](CCSC)C(=O)N[C@@H](CCC(=O)O)C(=O)N[C@@H](CCCNC(=N)N)C(=O)N[C@H](C(=O)N[C@@H](CCC(=O)O)C(=O)N[C@@H](Cc1c[nH]c2ccccc12)C(=O)N[C@@H](CC(C)C)C(=O)N[C@@H](CCCNC(=N)N)C(=O)N[C@@H](CCCCN)C(=O)N[C@@H](CCCCN)C(=O)N[C@@H](CC(C)C)C(=O)N[C@@H](CCC(N)=O)C(=O)N[C@@H](CC(=O)O)C(=O)N[C@H](C(=O)N[C@@H](Cc1c[nH]cn1)C(=O)N[C@@H](CC(N)=O)C(=O)N[C@@H](Cc1ccccc1)C(N)=O)C(C)C)C(C)C [SEQ. ID. NO: 36]	*#	0.47 ± 0.14 nM	1.24			0.24 ± 0.01 nM
CC[C@H](C)[C@H](NC(=O)[C@H](CCC(=O)O)NC(=O)[C@H](CO)NC(=O)[C@@H](NC(=O)C[C@@H](N)CO)C(C)C)C(=O)N[C@@H](CCC(N)=O)C(=O)N[C@@H](CC(C)C)C(=O)N[C@@H](CCSC)C(=O)N[C@@H](Cc1c[nH]cn1)C(=O)N[C@@H](CC(N)=O)C(=O)N[C@@H](CC(C)C)C(=O)NCC(=O)N[C@@H](CCCCN)C(=O)N[C@@H](Cc1c[nH]cn1)C(=O)N[C@@H](CC(C)C)C(=O)N[C@@H](CC(N)=O)C(=O)N[C@@H](CO)C(=O)N[C@@H](CCSC)C(=O)N[C@@H](CCC(=O)O)C(=O)N[C@@H](CCCNC(=N)N)C(=O)N[C@H](C(=O)N[C@@H](CCC(=O)O)C(=O)N[C@@H](Cc1c[nH]c2ccccc12)C(=O)N[C@@H](CC(C)C)C(=O)N[C@@H](CCCNC(=N)N)C(=O)N[C@@H](CCCCN)C(=O)N[C@@H](CCCCN)C(=O)N[C@@H](CC(C)C)C(=O)N[C@@H](CCC(N)=O)C(=O)N[C@@H](CC(=O)O)C(=O)N[C@H](C(=O)N[C@@H](Cc1c[nH]cn1)C(=O)N[C@@H](CC(N)=O)C(=O)N[C@@H](Cc1ccccc1)C(N)=O)C(C)C)C(C)C [SEQ. ID. NO: 38]	*#	0.27 ± 0.06 nM				
CC[C@H](C)[C@H](NC(=O)[C@H](CCC(=O)O)NC(=O)[C@H](CO)NC(=O)[C@@H](NC(=O)[C@@H](N)CO)C(C)C)C(=O)N[C@@H](CCC(N)=O)CC(=O)N[C@@H](CC(C)C)C(=O)N[C@@H](CCSC)C(=O)N[C@@H](Cc1c[nH]cn1)C(=O)N[C@@H](CC(N)=O)C(=O)N[C@@H](CC(C)C)C(=O)NCC(=O)N[C@@H](CCCCN)C(=O)N[C@@H](Cc1c[nH]cn1)C(=O)N[C@@H](CC(C)C)C(=O)N[C@@H](CC(N)=O)C(=O)N[C@@H](CO)C(=O)N[C@@H](CCSC)C(=O)N[C@@H](CCC(=O)O)C(=O)N[C@@H](CCCNC(=N)N)C(=O)N[C@H](C(=O)N[C@@H](CCC(=O)O)C(=O)N[C@@H](Cc1c[nH]c2ccccc12)C(=O)N[C@@H](CC(C)C)C(=O)N[C@@H](CCCNC(=N)N)C(=O)N[C@@H](CCCCN)C(=O)N[C@@H](CCCCN)C(=O)N[C@@H](CC(C)C)C(=O)N[C@@H](CCC(N)=O)C(=O)N[C@@H](CC(=O)O)C(=O)N[C@H](C(=O)N[C@@H](Cc1c[nH]cn1)C(=O)N[C@@H](CC(N)=O)C(=O)N[C@@H](Cc1ccccc1)C(N)=O)C(C)C)C(C)C [SEQ. ID. NO: 43]	#	8.45 ± 1.35 nM	22.24			
CC[C@H](C)[C@H](NC(=O)[C@H](CCC(=O)O)NC(=O)[C@H](CO)NC(=O)[C@@H](NC(=O)[C@@H](N)CO)C(C)C)C(=O)N[C@@H](CCC(N)=O)C(=O)N[C@H](CC(=O)N[C@@H](CCSC)C(=O)N[C@@H](Cc1c[nH]cn1)C(=O)N[C@@H](CC(N)=O)C(=O)N[C@@H](CC(C)C)C(=O)NCC(=O)N[C@@H](CCCCN)C(=O)N[C@@H](Cc1c[nH]cn1)C(=O)N[C@@H](CC(C)C)C(=O)N[C@@H](CC(N)=O)C(=O)N[C@@H](CO)C(=O)N[C@@H](CCSC)C(=O)N[C@@H](CCC(=O)O)C(=O)N[C@@H](CCCNC(=N)N)C(=O)N[C@H](C(=O)N[C@@H](CCC(=O)O)C(=O)N[C@@H](Cc1c[nH]c2ccccc12)C(=O)N[C@@H](CC(C)C)C(=O)N[C@@H](CCCNC(=N)N)C(=O)N[C@@H](CCCCN)C(=O)N[C@@H](CCCCN)C(=O)N[C@@H](CC(C)C)C(=O)N[C@@H](CCC(N)=O)C(=O)N[C@@H](CC(=O)O)C(=O)N[C@H](C(=O)N[C@@H](Cc1c[nH]cn1)C(=O)N[C@@H](CC(N)=O)C(=O)N[C@@H](Cc1ccccc1)C(N)=O)C(C)C)C(C)C)CC(C)C [SEQ. ID. NO: 44]	*			35 ± 2.84 nM		
